Measurements as given in PubChem BioAssay AID2060898 (Molecular Pharmacology Branch, DTP, NCI, 2025).
pIC50: −log10 of the molar value.

Tested on: 616215-338-R-J1-PDC complex spheroid viability
Test: Anticancer human tumor 616215-338-R-J1-PDC patient-derived colon adenocarcinoma cell line growth inhibition [RAS]
Conditions: for pIC50: curve of first compound; for viability, T/C: stronger effect = lower value
In short: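 Multi-cell-type spheroids: tumor cells plus HUVEC endothelial cells and mesenchymal stem cells. RAS-pathway inhibitors were combined with targeted agents, each dosed in half-log steps down from clinical Cmax, or from 10 microM when Cmax was unknown.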

[1] = second compound 0.000949 µM, first compound 0.0316 µM
[2] = second compound 0.000949 µM, first compound 0.1 µM
[3] = second compound 0.000949 µM, first compound 0.316 µM
[4] = second compound 0.000949 µM, first compound 1 µM
[5] = second compound 0.000949 µM, first compound 3.16 µM
[6] = second compound 0.000949 µM, first compound 10 µM
[7] = second compound 0.003 µM, first compound 0.0316 µM
[8] = second compound 0.003 µM, first compound 0.1 µM
[9] = second compound 0.003 µM, first compound 0.316 µM
[10] = second compound 0.003 µM, first compound 1 µM
[11] = second compound 0.003 µM, first compound 3.16 µM
[12] = second compound 0.003 µM, first compound 10 µM
[13] = second compound 0.00949 µM, first compound 0.0316 µM
[14] = second compound 0.00949 µM, first compound 0.1 µM
[15] = second compound 0.00949 µM, first compound 0.316 µM
[16] = second compound 0.00949 µM, first compound 1 µM
[17] = second compound 0.00949 µM, first compound 3.16 µM
[18] = second compound 0.00949 µM, first compound 10 µM
[19] = second compound 0.03 µM, first compound 0.0316 µM
[20] = second compound 0.03 µM, first compound 0.1 µM
[21] = second compound 0.03 µM, first compound 0.316 µM
[22] = second compound 0.03 µM, first compound 1 µM
[23] = second compound 0.03 µM, first compound 3.16 µM
[24] = second compound 0.03 µM, first compound 10 µM
[25] = second compound 0.0949 µM, first compound 0.0316 µM
[26] = second compound 0.0949 µM, first compound 0.1 µM
[27] = second compound 0.0949 µM, first compound 0.316 µM
[28] = second compound 0.0949 µM, first compound 1 µM
[29] = second compound 0.0949 µM, first compound 3.16 µM
[30] = second compound 0.0949 µM, first compound 10 µM
[31] = second compound 0.3 µM, first compound 0.0316 µM
[32] = second compound 0.3 µM, first compound 0.1 µM
[33] = second compound 0.3 µM, first compound 0.316 µM
[34] = second compound 0.3 µM, first compound 1 µM
[35] = second compound 0.3 µM, first compound 3.16 µM
[36] = second compound 0.3 µM, first compound 10 µM
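Note: spheroids exposed to agents for seven days before viability readout.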
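Throughout, for viability, T/C: 100% = DMSO vehicle control viability.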

## CC(=O)OC12COC1CC(O)C1(C)C(=O)C(O)C3=C(C)C(OC(=O)C(O)C(NC(=O)OC(C)(C)C)c4ccccc4)CC(O)(C(OC(=O)c4ccccc4)C21)C3(C)C (centres undefined) + CCn1c(-c2cc(N3CCN(C)CC3)cnc2C(C)OC)c2c3cc(ccc31)-c1csc(n1)CC(NC(=O)C1CC1C)C(=O)N1CCCC(N1)C(=O)OCC(C)(C)C2
Second compound 0.000949 µM
  pIC50: > 7.50
Second compound 0.003 µM
  pIC50: > 7.50
Second compound 0.00949 µM
  pIC50: > 7.50
Second compound 0.03 µM
  pIC50: > 7.50
Second compound 0.0949 µM
  pIC50: > 7.50
Second compound 0.3 µM
  pIC50: > 7.50
[1]
  viability, T/C: 27.1%
[2]
  viability, T/C: 20.3%
[3]
  viability, T/C: 18.9%
[4]
  viability, T/C: 19.9%
[5]
  viability, T/C: 20.7%
[6]
  viability, T/C: 24%
[7]
  viability, T/C: 22.3%
[8]
  viability, T/C: 18.3%
[9]
  viability, T/C: 15.9%
[10]
  viability, T/C: 19.3%
[11]
  viability, T/C: 18.8%
[12]
  viability, T/C: 24%
[13]
  viability, T/C: 18.5%
[14]
  viability, T/C: 16.4%
[15]
  viability, T/C: 13.3%
[16]
  viability, T/C: 12%
[17]
  viability, T/C: 17.2%
[18]
  viability, T/C: 18.7%
[19]
  viability, T/C: 15.6%
[20]
  viability, T/C: 13.4%
[21]
  viability, T/C: 13.1%
[22]
  viability, T/C: 13.2%
[23]
  viability, T/C: 14.5%
[24]
  viability, T/C: 16.8%
[25]
  viability, T/C: 15.4%
[26]
  viability, T/C: 12.4%
[27]
  viability, T/C: 10.8%
[28]
  viability, T/C: 13.4%
[29]
  viability, T/C: 13.5%
[30]
  viability, T/C: 14%
[31]
  viability, T/C: 14.9%
[32]
  viability, T/C: 13.3%
[33]
  viability, T/C: 10.7%
[34]
  viability, T/C: 11.9%
[35]
  viability, T/C: 13.9%
[36]
  viability, T/C: 16.3%

## CCC(CC)c1cc(NC2CCC(N)C2)n2nccc2n1 (centres undefined) + CCn1c(-c2cc(N3CCN(C)CC3)cnc2C(C)OC)c2c3cc(ccc31)-c1csc(n1)CC(NC(=O)C1CC1C)C(=O)N1CCCC(N1)C(=O)OCC(C)(C)C2
Second compound 0.000949 µM
  pIC50: 5.74
Second compound 0.003 µM
  pIC50: 5.73
Second compound 0.00949 µM
  pIC50: 5.80
Second compound 0.03 µM
  pIC50: 5.95
Second compound 0.0949 µM
  pIC50: > 7.50
Second compound 0.3 µM
  pIC50: > 7.50
[1]
  viability, T/C: 122%
[2]
  viability, T/C: 113%
[3]
  viability, T/C: 95%
[4]
  viability, T/C: 105%
[5]
  viability, T/C: 0.4%
[6]
  viability, T/C: 0.24%
[7]
  viability, T/C: 109%
[8]
  viability, T/C: 108%
[9]
  viability, T/C: 116%
[10]
  viability, T/C: 110%
[11]
  viability, T/C: 0.37%
[12]
  viability, T/C: 0.22%
[13]
  viability, T/C: 80.7%
[14]
  viability, T/C: 92.2%
[15]
  viability, T/C: 72.6%
[16]
  viability, T/C: 88.4%
[17]
  viability, T/C: 0.29%
[18]
  viability, T/C: 0.22%
[19]
  viability, T/C: 50.2%
[20]
  viability, T/C: 55.3%
[21]
  viability, T/C: 56.5%
[22]
  viability, T/C: 62.5%
[23]
  viability, T/C: 0.28%
[24]
  viability, T/C: 0.2%
[25]
  viability, T/C: 41.6%
[26]
  viability, T/C: 39.9%
[27]
  viability, T/C: 51.1%
[28]
  viability, T/C: 49.3%
[29]
  viability, T/C: 0.28%
[30]
  viability, T/C: 0.23%
[31]
  viability, T/C: 30.5%
[32]
  viability, T/C: 38.5%
[33]
  viability, T/C: 45.7%
[34]
  viability, T/C: 47.9%
[35]
  viability, T/C: 0.33%
[36]
  viability, T/C: 0.27%
